From PubChem BioAssay (NCI)
Where “and” joins values, the source holds several entries; their conditions need not be identical. Identical values can stand only once.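 Interpolation was linear, between the two tested concentrations surrounding the appropriate level; five concentrations were tested over 48 hours in 96-well plates. GI50: concentration for 50% inhibition of growth. Definition used: TGI = concentration required for complete inhibition of growth.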

Tests used:
Assay in all cases: NCI-60 cell line screen, 48 h
[1] = test system: CAKI-1 renal
[2] = test system: DLD-1 colon
[3] = test system: KM20L2 colon
[4] = test system: M19-MEL melanoma
[5] = test system: LXFL 529 NSCLC
[6] = test system: SF-268 CNS
[7] = test system: DMS 114 small cell lung
[8] = test system: OVCAR-8 ovarian
[9] = test system: HOP-18 NSCLC
[10] = test system: LOX IMVI melanoma
[11] = test system: MCF7 breast
[12] = test system: MDA-MB-435
[13] = test system: BT-549 breast

Compound	TGI [1]	TGI [2]	TGI [3]	TGI [4]	TGI [5]	TGI [6]	TGI [7]	TGI [8]	TGI [9]	TGI [10]	GI50 [11]	TGI [11]	GI50 [1]	GI50 [12]	TGI [12]	GI50 [8]	GI50 [10]	GI50 [6]	GI50 [13]	TGI [13]
N#Cc1c2ccccc2cn1-c1ccc(F)cc1	> 100 µM	> 100 µM	> 100 µM	> 100 µM	> 100 µM	99.5 µM	> 100 µM	–	–	–	–	–	–	–	–	–	–	–	–	–
Cc1cc(N(CCC#N)CCC#N)ccc1N=Nc1ccc(C(=O)O)cc1	> 100 µM	–	–	> 100 µM	> 100 µM	> 100 µM	> 100 µM	> 100 µM	> 100 µM	> 100 µM	–	–	–	–	–	–	–	–	–	–
Cc1ccccc1N1C(=O)C2C=CC(n3[nH]c(=O)n(Cc4ccccc4)c3=O)CC2C1=O (stereo not given)	> 100 µM	> 100 µM	> 100 µM	> 100 µM	> 100 µM	> 100 µM	> 100 µM	> 100 µM	> 100 µM	> 100 µM	–	–	–	–	–	–	–	–	–	–
CCCNC(=S)NNC(=O)CSc1nc(-c2ccccc2)c(-c2ccccc2)[nH]1	94.6 µM	> 100 µM	> 100 µM	> 100 µM	> 100 µM	> 100 µM	> 100 µM	> 100 µM	–	> 100 µM	–	–	–	–	–	–	–	–	–	–
O=C(CCc1n[nH]c(=S)o1)Nc1ccccc1C(F)(F)F	> 100 µM	> 100 µM	> 100 µM	> 100 µM	> 100 µM	> 100 µM	> 100 µM	> 100 µM	> 100 µM	–	–	–	–	–	–	–	–	–	–	–
C1=CC(N(c2ccccc2)C2C=CCCC2)CCC1 (stereo not given)	> 100 µM	> 100 µM	> 100 µM	> 100 µM	> 100 µM	> 100 µM	> 100 µM	> 100 µM	> 100 µM	> 100 µM	–	–	–	–	–	–	–	–	–	–
CCOc1ccc(NC(=O)CC#N)cc1	> 100 µM	> 100 µM	> 100 µM	> 100 µM	> 100 µM	> 100 µM	–	> 100 µM	> 100 µM	> 100 µM	–	–	–	–	–	–	–	–	–	–
O=C(c1ccccc1)c1cc2ccccc2o1	> 100 µM	–	–	–	–	> 100 µM	–	> 100 µM	–	> 100 µM	> 100 µM	> 100 µM	67 µM	> 100 µM	> 100 µM	> 100 µM	73.6 µM	70.3 µM	73 µM	> 100 µM
CCN1CCC(O)(c2ccc(OC)cc2)C(C(=O)c2ccc(OC)cc2)C1 (stereo not given)	31.3 µM	36.3 µM	33.2 µM	34.9 µM	37.2 µM	41.8 µM	40.8 µM	43.4 µM	–	45.1 µM	–	–	–	–	–	–	–	–	–	–
CN(C)CC[PH+](c1ccccc1)c1ccccc1.CN(C)CC[PH+](c1ccccc1)c1ccccc1.[Cl-].[Pd+2]	> 100 µM	–	–	–	–	> 100 µM	–	> 100 µM	–	> 100 µM	> 100 µM	> 100 µM	> 100 µM	> 100 µM	> 100 µM	> 100 µM	> 100 µM	> 100 µM	> 100 µM	> 100 µM
O=C1Nc2ccccc2/C1=N\[O-].O=C1Nc2ccccc2/C1=N\[O-].[Cu+2]	> 100 µM	–	–	–	–	> 100 µM	–	> 100 µM	–	> 100 µM	> 100 µM	> 100 µM	> 100 µM	> 100 µM	> 100 µM	> 100 µM	> 100 µM	> 100 µM	> 100 µM	> 100 µM
NC(=O)C12CC3CC(CC(F)(C3)C1)C2	–	> 100 µM	> 100 µM	> 100 µM	> 100 µM	–	> 100 µM	> 100 µM	–	> 100 µM	–	–	–	–	–	–	–	–	–	–
S=c1sc2c(Cl)nc(Cl)nc2n1-c1ccccc1	> 100 µM	29.9 µM	> 100 µM	29.9 µM	31.7 µM	23.2 µM	27.3 µM	> 100 µM	> 100 µM	> 100 µM	–	–	–	–	–	–	–	–	–	–
Cc1ccc(/C=C/C(=O)c2sc(-c3nc(C)c(C(=O)/C=C/c4ccc(C)cc4)s3)nc2C)cc1	> 100 µM	> 100 µM	> 100 µM	> 100 µM	–	> 100 µM	> 100 µM	> 100 µM	> 100 µM	> 100 µM	–	–	–	–	–	–	–	–	–	–
Oc1cccnc1[Se]	> 100 µM	–	–	–	–	> 100 µM	–	> 100 µM	–	> 100 µM	–	> 100 µM	–	–	> 100 µM	–	–	–	–	> 100 µM
COc1ccc(C(=O)/C=C/c2cc(-c3cc(OC)c(OC)c(OC)c3)n[nH]2)cc1OC	5.46 µM	–	–	–	–	3.96 µM	–	2.73 µM	–	2.76 µM	0.482 µM	1.95 µM	2.2 µM	1.34 µM	2.71 µM	1.32 µM	1.38 µM	1.82 µM	1.44 µM	2.9 µM
COc1ccc2[nH]cc(C3(c4c[nH]c5ccc(OC)cc45)C(=O)Nc4ccc(F)cc43)c2c1	10.6 µM	–	–	–	–	12.7 µM	–	9.67 µM	–	3.26 µM	2.72 µM	10.1 µM	2.29 µM	1.97 µM	4.73 µM	2.75 µM	1.65 µM	3.17 µM	3.21 µM	11.7 µM
COc1cccc(C2=NC(C(C)C)CO2)c1 (stereo not given)	> 100 µM	> 100 µM	> 100 µM	> 100 µM	> 100 µM	> 100 µM	> 100 µM	> 100 µM	–	> 100 µM	–	–	–	–	–	–	–	–	–	–
COc1cc(NCc2ccc3nc(N)nc(N)c3c2C)cc(OC)c1OC (tested in a mixture with another compound)	–	95.6 µM	48.5 µM	52.5 µM	–	66.8 µM	37.7 µM	–	146 µM	38.3 µM	–	28.7 µM	–	0.000388 µM	50.1 µM	–	0.000242 µM	–	0.0611 µM	34.2 µM and 45.4 µM
COc1ccc(-c2nn(-c3ccc(NC(=O)c4ccc(Cl)c(Cl)c4)cc3)cc2-c2ccncc2)cc1Cl	5.26 µM	–	–	–	–	> 50 µM	–	> 50 µM	–	2.17 µM	2.97 µM	> 50 µM	1.33 µM	3.97 µM	> 50 µM	> 25.8 µM	0.951 µM	4.25 µM	3.23 µM	> 50 µM
